Values quoted from earlier work in PubChem BioAssay AID1259409 (Chemical Carcinogenesis Research Information System (CCRIS), 2018).

Tested on: rodent chemically induced tumor inhibition, incidence and multiplicity
Experiment: CCRIS tumor inhibitor studies
Conditions: Dose [Inhibitor]: 0

C[C@]12CC[C@H](OS(=O)(=O)O)CC1=CC[C@@H]1[C@@H]2CC[C@]2(C)C(=O)CC[C@@H]12
tumour outcome (control, treated, inhibition, significance) (Carcinogen: 7,12-DIMETHYLBENZ[A]ANTHRACENE, 57-97-6, 1 X 0.5 CM LONG SILASTIC IMPLANT 7 D PRIOR TO CARCINOGEN TREATMENT (STUDY DURATION: 111 D), Route [Inhibitor]: SUBCUTANEOUS IMPLANT, Species: RAT, Strain/Sex: SPRAGUE-DAWLEY/FEMALE, Target Tissue: Type of Lesion: MAMMARY GLAND: CARCINOMA, Dose [Carcinogen]: 20 MG IN 1 ML CORN OIL ADMINISTERED ON DAYS 50 TO 52 OF AGE, Promoter: NONE USED): 68%, 41%, 40%, not significant
tumour outcome (control, treated, inhibition, significance) (Carcinogen: 7,12-DIMETHYLBENZ[A]ANTHRACENE, 57-97-6, 1 X 1 CM LONG SILASTIC IMPLANT 7 D PRIOR TO CARCINOGEN TREATMENT (STUDY DURATION: 111 D), Route [Inhibitor]: SUBCUTANEOUS IMPLANT, Species: RAT, Strain/Sex: SPRAGUE-DAWLEY/FEMALE, Target Tissue: Type of Lesion: MAMMARY GLAND: CARCINOMA, Dose [Carcinogen]: 20 MG IN 1 ML CORN OIL ADMINISTERED ON DAYS 50 TO 52 OF AGE, Promoter: NONE USED): 68%, 44%, 35%, not significant
tumour outcome (control, treated, inhibition, significance) (Carcinogen: 7,12-DIMETHYLBENZ[A]ANTHRACENE, 57-97-6, 1 X 3 CM LONG SILASTIC IMPLANT 7 D PRIOR TO CARCINOGEN TREATMENT (STUDY DURATION: 111 D), Route [Inhibitor]: SUBCUTANEOUS IMPLANT, Species: RAT, Strain/Sex: SPRAGUE-DAWLEY/FEMALE, Target Tissue: Type of Lesion: MAMMARY GLAND: CARCINOMA, Dose [Carcinogen]: 20 MG IN 1 ML CORN OIL ADMINISTERED ON DAYS 50 TO 52 OF AGE, Promoter: NONE USED): 68%, 22%, 68%, p<0.01
tumour outcome (control, treated, inhibition, significance) (Carcinogen: 7,12-DIMETHYLBENZ[A]ANTHRACENE, 57-97-6, 3 X 3 CM LONG SILASTIC IMPLANT 7 D PRIOR TO CARCINOGEN TREATMENT (STUDY DURATION: 111 D), Route [Inhibitor]: SUBCUTANEOUS IMPLANT, Species: RAT, Strain/Sex: SPRAGUE-DAWLEY/FEMALE, Target Tissue: Type of Lesion: MAMMARY GLAND: CARCINOMA, Dose [Carcinogen]: 20 MG IN 1 ML CORN OIL ADMINISTERED ON DAYS 50 TO 52 OF AGE, Promoter: NONE USED): 68%, 11%, 84%, p<0.01
tumour outcome (control, treated, inhibition, significance) (Carcinogen: 7,12-DIMETHYLBENZ[A]ANTHRACENE, 57-97-6, 6 X 3 CM LONG SILASTIC IMPLANT 7 D PRIOR TO CARCINOGEN TREATMENT (STUDY DURATION: 111 D), Route [Inhibitor]: SUBCUTANEOUS IMPLANT, Species: RAT, Strain/Sex: SPRAGUE-DAWLEY/FEMALE, Target Tissue: Type of Lesion: MAMMARY GLAND: CARCINOMA, Dose [Carcinogen]: 20 MG IN 1 ML CORN OIL ADMINISTERED ON DAYS 50 TO 52 OF AGE, Promoter: NONE USED): 68%, 4%, 94%, p<0.01
tumour outcome (control, treated, inhibition, significance) (Carcinogen: N-NITROBIS(2-OXOPROPYL)AMINE, 60599-38-4, 350 MG/KG ONCE ON DAY 1 OF STUDY (STUDY DURATION: 70 D), Route [Inhibitor]: INTRAPERITONEAL, Species: HAMSTER, Strain/Sex: SYRIAN/FEMALE, Target Tissue: Type of Lesion: PANCREAS: CARCINOMA, Dose [Carcinogen]: 70 MG/KG ONCE ON DAY 1 OF STUDY THEN ONCE ON DAYS 17 AND 32 OF STUDY, Promoter: ETHIONINE, 67-21-0, METHIONINE, 63-68-3, Promoter: ETHIONINE, 67-21-0, METHIONINE, 63-68-3): 8/15 (53%), 6/15 (40%), 25%, not significant
tumour outcome (control, treated, inhibition, significance) (Carcinogen: N-NITROSOBIS(2-OXOPROPYL)AMINE, 60599-38-4, 175 MG/KG ONCE ON DAY 1 OF STUDY (STUDY DURATION: 70 D), Route [Inhibitor]: INTRAPERITONEAL, Species: HAMSTER, Strain/Sex: SYRIAN/FEMALE, Target Tissue: Type of Lesion: PANCREAS: CARCINOMA, Dose [Carcinogen]: 70 MG/KG ONCE ON DAY 1 OF STUDY THEN ONCE ON DAYS 17 AND 32 OF STUDY, Promoter: ETHIONINE, 67-21-0, METHIONINE, 63-68-3, Promoter: ETHIONINE, 67-21-0, METHIONINE, 63-68-3): 8/15 (53%), 9/16 (56%), -7%, not significant
